Reference: patent publication US8859783B2, “Indirubin-3′-oxime derivatives as potent cyclin dependent kinase inhibitors” (Anygen Co., Ltd., priority 2010, dated 2014)
Several values for one entry are separate records, joined by “and”; a condition that tells them apart may be missing. Equal entries are not always repeated.

Columns and labels:
CDK2/cyclin E = biological target: T1, CDK2/cyclin E (Homo sapiens, UniProt P24941); experiment: CDK2/cyclin E kinase assay; type: biochemical; details: for IC50: ten concentrations, dose response curves, read-out: CDK2/cyclin E inhibitory activity IC50; for CDK2 potency relative to compound 1: higher potency than 1
T1 construct: purchased Milipore (Billerica, Mass.)
Experimental: CDK1/cyclin B, CDK2/cyclin E were purchased from Milipore (Billerica, Mass.). The kinase activity was tested in buffer (8 mM MOPS pH 7.0, 0.2 mM EDTA, 10 mM MgAcetate), with 0.1 mg/mL histone H1, in the presence of 45 µM [—^33P] ATP (500 cpm/pmol) for CDK1 or 120 μM [γ—^33P] ATP (500 cpm/pmol) for CDK2 in a final reaction volume of […]. The reaction was initiated by the addition of the MgATP mix. After incubation for 40 min at 30° C., the reaction was stopped by the addition of 5 μL of 3% phosphoric acid solution. 10 μL aliquots of supernatant were spotted onto 2.5 cm×3 cm pieces of Whatman […] phosphocellulose paper, and 20 s later, the filters were washed three times for 5 min in 75 mM phosphoric acid and once in methanol prior to drying. The […] filters were counted in the presence of 1 mL of ACS (Amersham) scintillation fluid. The activities are usually expressed as a percentage of the maximal activity, i.e., in the absence of inhibitors. Controls were applied with appropriate dilutions of DMSO.

[1] = test system: MCF-7 human breast cancer cell; experiment: SRB cell proliferation assay, MCF-7; type: cell-based; details: MCF7, 72 h, 3 days
Experimental: (§1) ^a A series of indirubin derivatives were tested at five concentrations for their effects on various human cancer cell lines using SRB assay, as described in the Experimental Section.
(§2) Cells (A549, HT1080, HCT116, K562, SNU638, KB, MCF-7) were counted, diluted to 5×10^4 cells/mL with fresh medium (MEME, DMEM or RPMI containing 10% FBS), and added 190 μL of cell suspension to 96-well plates containing various concentrations of test compounds (10 μL in 10% aqueous DMSO). Test plates were incubated for 3 days at 37° C. in CO2 incubator. For zero day controls, cells were incubated for 30 min at 37° C. in CO2 incubator. All treatments were performed in triplicate. After the incubation periods, cells were fixed with 50 μL of cold 50% TCA at 4° C. for 30 min, washed 5 times with tap water, and air-dried. The fixed cells were stained with 0.4% SRB solution in 1% aqueous acetic acid at room temperature for 1 h. Free SRB solution was then removed by rinsing 5 times with 1% acetic acid, and air-dried. The bound dye was dissolved with 200 µL of 10 mM Tris-base (pH 10.0), and absorbance was determined at 515 nm using an ELISA microplate reader. Finally, the absorbance values obtained with each of the treatment procedures were averaged, and the average values obtained with the zero day control were subtracted.

[2] = test system: SNU638 human stomach cancer cell; experiment: SRB cell proliferation assay, SNU638; type: cell-based; details: SNU-638, 72 h, 3 days
Experimental: as §1, §2

[3] = test system: HCT116 human colon cancer cell; experiment: SRB cell proliferation assay, HCT116; type: cell-based; details: 3 days
Experimental: as §1, §2

K562 human leukemia cell = experiment: SRB cell proliferation assay, K562; type: cell-based; details: K562, 72 h, 3 days
Experimental: as §1, §2

[4] = test system: KB human nasopharyngeal cancer cell; experiment: SRB cell proliferation assay, KB; type: cell-based; details: 72 h, 3 days
Experimental: as §1, §2

[5] = test system: HT1080 human fibro sarcoma cell; experiment: SRB cell proliferation assay, HT1080; type: cell-based; details: HT-1080, 72 h, 3 days
Experimental: as §1, §2

[6] = test system: A549 human lung cancer cell; experiment: SRB cell proliferation assay, A549; type: cell-based; details: A549, 72 h, 3 days
Experimental: as §1, §2

[7] = test system: several human cancer cell lines; experiment: SRB cell proliferation assay, summary over cell lines; type: cell-based; details: for IC50: Homo sapiens, range over cell lines, read-out: anti-proliferative IC50, range over cancer cell lines
Experimental: as §1, §2

Compound	IC50 (CDK2/cyclin E)	IC50 [1] [µM]	IC50 [2] [µM]	IC50 ([3]; Homo sapiens, HCT-116, 72 h) [µM]	IC50 (K562 human leukemia cell) [µM]	IC50 [4] [µM]	IC50 [5] [µM]	IC50 [6] [µM]	IC50 [3] [µM]	CDK2 potency relative to compound 1 (CDK2/cyclin E)	IC50 [7] [µM]	selectivity for CDK2 over CDK1 (CDK2/cyclin E; CDK2 vs CDK1) [fold]	CDK2 inhibitory effect relative to 16b (CDK2/cyclin E; enhanced compared with 16b) [fold]	anti-proliferative activity in words [7]
O=C1Nc2ccc([N+](=O)[O-])cc2/C1=C1/Nc2ccccc2C1=NO [Compound 1, 5-nitroindirubin-3′-oxime, reference compound]	0.007 µM and 0.00735 µM													
O=C1Nc2ccc(Cl)cc2/C1=C1/Nc2ccc(O)cc2C1=NO [Compound 11a, (2′Z, 3′E)-5′-Hydroxy-5-chloro-indirubin-3′-oxime]	0.00527 µM	10.7	5.14	3.5	12.2	10.2	2.92	16.4						
O=C1Nc2ccc(F)cc2/C1=C1/Nc2ccc(O)cc2C1=NO [Compound 11c, (2′Z, 3′E)-5′-Hydroxy-5-fluoro-indirubin-3′-oxime]	0.00225 µM	2.6	2.11	1.66	1.4	4.6	0.68	4.09						
O=C1Nc2ccc(OC(F)(F)F)cc2/C1=C1/Nc2ccc(O)cc2C1=NO [Compound 11d, (2′Z, 3′E)-5′-Hydroxy-5-trifluoromethoxy-indirubin-3′-oxime]	0.00832 µM	4.2	2.96	2.25	5.9	5.8	2.28	16.9						
O=C1Nc2ccc(Cl)cc2/C1=C1/Nc2ccc(Cl)cc2C1=NO [Compound 12a, (2′Z, 3′E)-5′-Chloro-5-chloro-indirubin-3′-oxime]	0.0111 µM	6.1	2.57	1.86	17.2	11.9	12.2	> 20						
O=C1Nc2ccc(F)cc2/C1=C1/Nc2ccc(Cl)cc2C1=NO [Compound 12c, (2′Z, 3′E)-5′-Chloro-5-fluoro-indirubin-3′-oxime]	0.0101 µM	3.5	2.28	1.7	14.7	3.6	3.62	18.9						
O=C1Nc2ccc(OC(F)(F)F)cc2/C1=C1/Nc2ccc(Cl)cc2C1=NO [Compound 12d, (2′Z, 3′E)-5′-Chloro-5-trifluoromethoxy-indirubin-3′-oxime]	0.0762 µM	4.2	2.71	3.79	> 20	2.8	17.7	> 20						
O=C1Nc2ccc(Cl)cc2/C1=C1/Nc2ccc(F)cc2C1=NO [Compound 13a, (2′Z, 3′E)-5′-Fluoro-5-chloro-indirubin-3′-oxime]	0.00801 µM	7	6.32	3.3	7.14	9.1	5.33	> 20						
O=C1Nc2ccc([N+](=O)[O-])cc2/C1=C1/Nc2ccc(F)cc2C1=NO [Compound 13b, (2′Z, 3′E)-5′-Fluoro-5-nitro-indirubin-3′-oxime]	0.00171 µM	0.9	0.94	~0.3	0.46	0.9	0.64	0.57	0.28	approximately 4 fold	0.2 to 3.3			
O=C1Nc2ccc(F)cc2/C1=C1/Nc2ccc(F)cc2C1=NO [Compound 13c, (2′Z, 3′E)-5′-Fluoro-5-fluoro-indirubin-3′-oxime]	0.00183 µM	6.57	2.23	13.5	15.9	13.2	8.6	10.3		approximately 4 fold				
O=C1Nc2ccc(OC(F)(F)F)cc2/C1=C1/Nc2ccc(F)cc2C1=NO [Compound 13d, (2′Z, 3′E)-5′-Fluoro-5-trifluoromethoxy-indirubin-3′-oxime]	0.0603 µM	4.1	1.89	1.5	1.5	3.8	3.95	19.9						

Continued, in another order:

IC50 (CDK2/cyclin E)	IC50 [1] [µM]	IC50 [2] [µM]	IC50 ([3]; Homo sapiens, HCT-116, 72 h) [µM]	IC50 (K562 human leukemia cell) [µM]	IC50 [4] [µM]	IC50 [5] [µM]	IC50 [6] [µM]	IC50 [3] [µM]	CDK2 potency relative to compound 1 (CDK2/cyclin E)	IC50 [7] [µM]	selectivity for CDK2 over CDK1 (CDK2/cyclin E; CDK2 vs CDK1) [fold]	CDK2 inhibitory effect relative to 16b (CDK2/cyclin E; enhanced compared with 16b) [fold]	Compound	anti-proliferative activity in words [7]
	8.79	12.7	18.8	> 20	5.18	> 20	> 20						Cc1ccc2c(c1)C(=NO)/C(=C1/C(=O)Nc3ccc(Cl)cc31)N2 [Compound 14a, (2′Z, 3′E)-5′-Methyl-5-chloro-indirubin-3′-oxime]	
0.00868 µM	1.06	1.06	1.41	0.8	2.1	3.92	> 20			0.8 to 1	7	270	Cc1ccc2c(c1)C(=NO)/C(=C1/C(=O)Nc3ccc([N+](=O)[O-])cc31)N2 [Compound 14b, (2′Z, 3′E)-5′-Methyl-5-nitro-indirubin-3′-oxime]	
	10.5	11.5	> 20	> 20	10.6	> 20	> 20						Cc1ccc2c(c1)C(=NO)/C(=C1/C(=O)Nc3ccc(F)cc31)N2 [Compound 14c, (2′Z, 3′E)-5′-Methyl-5-fluoro-indirubin-3′-oxime]	
	7.3	> 20	> 20	> 20	8.13	> 20	> 20						Cc1ccc2c(c1)C(=NO)/C(=C1/C(=O)Nc3ccc(OC(F)(F)F)cc31)N2 [Compound 14d, (2′Z, 3′E)-5′-Methyl-5-trifluoromethoxy-indirubin-3′-oxime]	
2.95 µM	> 20	> 20	> 20	> 20	> 20	> 20	> 20						COc1ccc2c(c1)C(=NO)/C(=C1/C(=O)Nc3ccc([N+](=O)[O-])cc31)N2 [Compound 16a, (2′Z, 3′E)-5′-Methoxy-5-nitro-indirubin-3′-oxime]	
4.12 µM	> 20	13.6	3.59	5.29	> 20	4.84	6.71						COc1ccc2c(c1)C(=NO)/C(=C1/C(=O)Nc3ccc(F)cc31)N2 [Compound 16b, (2′Z, 3′E)-5′-Methoxy-5-fluoro-indirubin-3′-oxime]	moderate anti-proliferative activity
8.62 µM	13	> 20	> 20	> 20	20	> 20	> 20						COc1ccc2c(c1)C(=NO)/C(=C1/C(=O)Nc3ccc(OC(F)(F)F)cc31)N2 [Compound 16c, (2′Z, 3′E)-5′-Methoxy-5-trifluoromethoxy-indirubin-3′-oxime]	
